From patent US20250214966A1, “Crystalline Salt Form Of A SHP2 Inhibitor” (Array BioPharma Inc., priority 2022, published 2025)
Like-named read-outs stand apart in the source and are kept apart here.

How the values were obtained:
Assay type in all cases: physicochemical
[1] = Solubility of salts in buffer systems at 37° C. (Table 14); conditions: 20 mg in 1 mL; for solubility at 18 h: thermodynamic from solid
Protocol: The solubility (Table 14) was determined by adding 20 mg of salts (Examples 3 to 8) into 3 HPLC vials, to each vial, a magnetic stirrer bar was added along with 1 mL of the appropriate buffer system (pH 1.2 HCl, pH 4.5 sodium acetate, or pH 6.8 phosphate). The samples were agitated at 37° C. for […]. After 24 hours, the slurries were isolated by centrifugation filtration and isolated mother liquors were analyzed by HPLC.
HPLC method (Table 14): A Dionex Ultimate 3000 HPLC instrument was used with a Waters XSelect HSS T3 Column (100 angstrom, 4.6×150 mm, 5 μm). The column temperature was set to 20° C., the UV wavelength set to 254 nm, the injection volume was 10 μL, with a flow rate of 1.0 mL/min. 10 mM ammonium acetate adjusted to pH 4.8 was used as a mobile phase A, and acetonitrile was used as mobile phase B. The gradient method was set up to achieve 15% mobile phase B at 0 minutes, 95% mobile phase B at 17 minutes—held until 22 minutes, 15% mobile phase B at 22.1 minutes—held until 28 minutes.

[2] = TGA/DSC of salts (Table 14); conditions: 10° C./min
Protocol: TGA/DSC (Table 14): Approximately, 5-10 mg of material was added into a pre-tared open aluminum pan and loaded into a TA Instruments Discovery SDT 650 Auto—Simultaneous DSC and held at room temperature. The sample was then heated at a rate of 10° C./min from 20° C. (ambient) to 400° C. during which time the change in sample weight was recorded along with the heat flow response (DSC). Nitrogen was used as the sample purge gas, at a flow rate of 200 cm3/min.
DSC (Table 14): Approximately, 1-5 mg of material was weighed into an aluminum DSC pan and sealed nonhermetically with an aluminum lid. The sample pan was then loaded into a TA Instruments Discovery DSC 2500 differential scanning calorimeter equipped with a RC90 cooler. The sample and reference were heated to 310° C. at a scan rate of 10° C./min and the resulting heat flow response monitored. The sample was re-cooled to 20° C. and then reheated again to 205° C. all at 10° C./min. Nitrogen was used as the purge gas, at a flow rate of 50 cm^3/min.

[3] = Dynamic vapor sorption of salts (Table 14); conditions: 25° C.; for DVS weight change: ramping 40-90% RH
Protocol: DVS (Table 14): Approximately, 10-20 mg of sample was placed into a mesh vapor sorption balance pan and loaded into a DVS Intrinsic dynamic vapor sorption balance by Surface Measurement Systems. The sample was subjected to a ramping profile from 40-90% relative humidity (RH) at 10% increments, maintaining the sample at each step until a stable weight had been achieved (dm/dt 0.004%, minimum step length 30 minutes, maximum step length 500 minutes) at 25° C. After completion of the sorption cycle, the sample was dried using the same procedure to 0% RH and then a second sorption cycle back to 40% RH. Two cycles were performed. Theweight change during the sorption/desorption cycles were plotted, allowing for the hygroscopic nature of the sample to be determined. XRPD analysis was then carried out on any solid retained. […] The sample was subjected to a ramping profile from 40-90% relative humidity (RH) at 10% increments, maintaining the sample at each step until a stable weight had been achieved (dm/dt 0.004%, minimum step length 30 minutes, maximum step length 500 minutes) at 25° C. After completion of the sorption cycle, the sample was dried using the same procedure to 0% RH and then a second sorption cycle back to 40% RH. Two cycles were performed. The weight change during the sorption/desorption cycles were plotted, allowing for the hygroscopic nature of the sample to be determined. XRPD analysis was then carried out on any solid retained.

[4] = pH 1.2 HCl buffer, simulated gastric fluid, pH 1.2 HCl, read-out: Solubility pH 1.2 HCl
[5] = pH 4.5 sodium acetate buffer, aqueous buffer, pH 4.5 sodium acetate, read-out: Solubility pH 4.5 Sodium Acetate
[6] = pH 6.8 phosphate buffer, aqueous buffer, pH 6.8 phosphate, read-out: Solubility Ph 6.8 Phosphate

| solubility at 18 h [1, 4] | solubility at 18 h [1, 5] | solubility at 18 h [1, 6] | TGA/DSC Melt/degradation [2] | DVS hygroscopic nature [3] | DVS weight change [3] | Solubility pH 1.2 HCl (mg/mL) ([1]; pH 1.2 HCl) | Solubility pH 4.5 Sodium Acetate ([1]; pH 4.5 sodium acetate) | Solubility Ph 6.8 Phosphate ([1]; pH 6.8 phosphate) | Structure (SMILES) |
| --- | --- | --- | --- | --- | --- | --- | --- | --- | --- |
| > 20000 µg/mL | 200 µg/mL | 400 µg/mL | 225.7 °C | Hygroscopic | 2.1% | – | – | – | Nc1nccc(Sc2cnc(N3CCC4(CC3)Cc3ccccc3[C@H]4N)nn2)c1Cl.O=C(O)/C=C/C(=O)O [Example 6, (S)-1′-(6-((2-Amino-3-chloropyridin-4-yl)thio)-1,2,4-triazin-3-yl)-1,3-dihydrospiro[indene-2,4′-piperidin]-1-amine fumarate] |
| – | – | – | 174 °C | Hygroscopic | 7.6% | >20 mg/mL | 0.4 mg/mL | 1.9 mg/mL | Nc1nccc(Sc2cnc(N3CCC4(CC3)Cc3ccccc3[C@H]4N)nn2)c1Cl.O=P(O)(O)O [Example 5, (S)-1′-(6-((2-Amino-3-chloropyridin-4-yl)thio)-1,2,4-triazin-3-yl)-1,3-dihydrospiro[indene-2,4′-piperidin]-1-amine phosphate (Pattern 2)] |
| > 20000 µg/mL | 400 µg/mL | 1200 µg/mL | 187 °C | Hygroscopic | 5.8% | – | – | – | Nc1nccc(Sc2cnc(N3CCC4(CC3)Cc3ccccc3[C@H]4N)nn2)c1Cl.O=C(O)C(O)C(O)C(=O)O [Example 7, (S)-1′-(6-((2-Amino-3-chloropyridin-4-yl)thio)-1,2,4-triazin-3-yl)-1,3-dihydrospiro[indene-2,4′-piperidin]-1-amine tartrate] |
| – | – | – | 100 °C | Hygroscopic | 6.3% | >20 mg/mL | 0.3 mg/mL | 9.3 mg/mL | Nc1nccc(Sc2cnc(N3CCC4(CC3)Cc3ccccc3[C@H]4N)nn2)c1Cl.O=P(O)(O)O [Example 4, (S)-1′-(6-((2-Amino-3-chloropyridin-4-yl)thio)-1,2,4-triazin-3-yl)-1,3-dihydrospiro[indene-2,4′-piperidin]-1-amine phosphate (Pattern 1)] |
